Measured values reported in US20250170099A1, “TREATMENT OF POSTNATAL DEPRESSION” (GH RESEARCH IRELAND LIMITED, priority 2022, published 2025).

Key:
[1] = Pharmacokinetics of 5-MeO-DMT and bufotenine after inhalation; assay type: in vivo, human; conditions: within 1 to 4 hours
[2] = test system: Salmonella typhimurium TA98, TA100, TA1535, TA1537 and Escherichia coli WP2 uvrA pKM101; assay: Bacterial mutation test; assay type: cell-based
Procedure: These conditions included treatments at concentrations up to 5000 μg/plate (the maximum recommended concentration according to current regulatory guidelines), in the absence and in the presence of a rat liver metabolic activation system (S-9).

COc1ccc2[nH]cc(CCN(C)C)c2c1 [5-MeO-DMT]
accumulation upon repeated administration [1]: No accumulation
in vitro genotoxicity assessment [2]: negative
mutation induction ([2]; up to 5000 μg/plate, without and with S-9): did not induce mutation
